Data taken from publication PMC8213057, “Targeting ALK2: An Open Science Approach to Developing Therapeutics for the Treatment of Diffuse Intrinsic Pontine Glioma” (Journal of Medicinal Chemistry, 2020).
Values joined by “and” are separate entries in the source; they are usually repeats but may differ in a detail not shown here. Identical values can stand only once.

Tests used:
[1] = molecular target: T1, CYP2D6 (Homo sapiens, UniProt P10635); experiment: CYP inhibition assay; type: in vitro ADME; settings: human liver microsomes
T1 construct: tissue Corning 452117; host or cells: pooled human liver microsomes (UltraPool HLM 150, mixed gender)
T1 sequence (P10635 whole entry): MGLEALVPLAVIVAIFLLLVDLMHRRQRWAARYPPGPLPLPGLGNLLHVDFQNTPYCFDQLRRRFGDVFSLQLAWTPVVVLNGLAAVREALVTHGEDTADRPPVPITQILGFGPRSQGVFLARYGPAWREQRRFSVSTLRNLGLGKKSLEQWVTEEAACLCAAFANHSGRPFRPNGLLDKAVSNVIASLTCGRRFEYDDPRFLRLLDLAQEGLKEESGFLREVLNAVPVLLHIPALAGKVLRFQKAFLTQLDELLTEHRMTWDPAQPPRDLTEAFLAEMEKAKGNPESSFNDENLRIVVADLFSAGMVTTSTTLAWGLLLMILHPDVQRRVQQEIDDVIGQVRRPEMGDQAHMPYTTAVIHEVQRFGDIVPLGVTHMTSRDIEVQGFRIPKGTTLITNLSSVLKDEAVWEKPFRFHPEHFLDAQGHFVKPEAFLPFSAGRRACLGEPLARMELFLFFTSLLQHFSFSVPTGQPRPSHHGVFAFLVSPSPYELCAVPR

[2] = molecular target: CDK4/cyclin D1 (Homo sapiens, UniProt P11802); settings: 1 μM; Run 1, Run 2
[3] = molecular target: RSK2 (Homo sapiens, UniProt P51812); experiment: biochemical; settings: read-out: % enzyme activity, 1 μM; Run 1, Run 2
[4] = molecular target: ROS/ROS1 (Homo sapiens, UniProt P08922); settings: 1 μM; Run 1, Run 2
[5] = molecular target: PKCb2 (Homo sapiens, UniProt P05771); settings: 1 μM; Run 1, Run 2
Chain of PKCb2 (P05771 1-673 isoform P05771-2): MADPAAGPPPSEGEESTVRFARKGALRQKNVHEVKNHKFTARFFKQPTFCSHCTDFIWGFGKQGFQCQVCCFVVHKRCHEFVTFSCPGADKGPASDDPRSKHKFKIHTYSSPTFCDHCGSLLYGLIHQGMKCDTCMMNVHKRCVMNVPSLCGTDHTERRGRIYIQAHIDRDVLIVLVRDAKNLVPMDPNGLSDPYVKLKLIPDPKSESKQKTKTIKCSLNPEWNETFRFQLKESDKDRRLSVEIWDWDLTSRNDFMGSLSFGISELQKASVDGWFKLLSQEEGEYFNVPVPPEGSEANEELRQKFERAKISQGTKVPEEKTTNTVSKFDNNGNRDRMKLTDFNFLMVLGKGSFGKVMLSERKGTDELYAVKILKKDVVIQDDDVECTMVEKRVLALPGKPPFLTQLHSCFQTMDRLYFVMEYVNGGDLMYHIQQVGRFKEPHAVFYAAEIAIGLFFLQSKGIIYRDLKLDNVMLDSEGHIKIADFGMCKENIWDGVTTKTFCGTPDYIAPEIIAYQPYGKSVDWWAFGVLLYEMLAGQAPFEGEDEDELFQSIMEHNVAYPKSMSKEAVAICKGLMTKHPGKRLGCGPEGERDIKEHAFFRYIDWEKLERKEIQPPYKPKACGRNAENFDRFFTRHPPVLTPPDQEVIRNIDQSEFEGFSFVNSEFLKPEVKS

[6] = molecular target: RON/MST1R (Homo sapiens, UniProt Q04912); settings: 1 μM; Run 1, Run 2
Chain of RON/MST1R (Q04912 25-1400): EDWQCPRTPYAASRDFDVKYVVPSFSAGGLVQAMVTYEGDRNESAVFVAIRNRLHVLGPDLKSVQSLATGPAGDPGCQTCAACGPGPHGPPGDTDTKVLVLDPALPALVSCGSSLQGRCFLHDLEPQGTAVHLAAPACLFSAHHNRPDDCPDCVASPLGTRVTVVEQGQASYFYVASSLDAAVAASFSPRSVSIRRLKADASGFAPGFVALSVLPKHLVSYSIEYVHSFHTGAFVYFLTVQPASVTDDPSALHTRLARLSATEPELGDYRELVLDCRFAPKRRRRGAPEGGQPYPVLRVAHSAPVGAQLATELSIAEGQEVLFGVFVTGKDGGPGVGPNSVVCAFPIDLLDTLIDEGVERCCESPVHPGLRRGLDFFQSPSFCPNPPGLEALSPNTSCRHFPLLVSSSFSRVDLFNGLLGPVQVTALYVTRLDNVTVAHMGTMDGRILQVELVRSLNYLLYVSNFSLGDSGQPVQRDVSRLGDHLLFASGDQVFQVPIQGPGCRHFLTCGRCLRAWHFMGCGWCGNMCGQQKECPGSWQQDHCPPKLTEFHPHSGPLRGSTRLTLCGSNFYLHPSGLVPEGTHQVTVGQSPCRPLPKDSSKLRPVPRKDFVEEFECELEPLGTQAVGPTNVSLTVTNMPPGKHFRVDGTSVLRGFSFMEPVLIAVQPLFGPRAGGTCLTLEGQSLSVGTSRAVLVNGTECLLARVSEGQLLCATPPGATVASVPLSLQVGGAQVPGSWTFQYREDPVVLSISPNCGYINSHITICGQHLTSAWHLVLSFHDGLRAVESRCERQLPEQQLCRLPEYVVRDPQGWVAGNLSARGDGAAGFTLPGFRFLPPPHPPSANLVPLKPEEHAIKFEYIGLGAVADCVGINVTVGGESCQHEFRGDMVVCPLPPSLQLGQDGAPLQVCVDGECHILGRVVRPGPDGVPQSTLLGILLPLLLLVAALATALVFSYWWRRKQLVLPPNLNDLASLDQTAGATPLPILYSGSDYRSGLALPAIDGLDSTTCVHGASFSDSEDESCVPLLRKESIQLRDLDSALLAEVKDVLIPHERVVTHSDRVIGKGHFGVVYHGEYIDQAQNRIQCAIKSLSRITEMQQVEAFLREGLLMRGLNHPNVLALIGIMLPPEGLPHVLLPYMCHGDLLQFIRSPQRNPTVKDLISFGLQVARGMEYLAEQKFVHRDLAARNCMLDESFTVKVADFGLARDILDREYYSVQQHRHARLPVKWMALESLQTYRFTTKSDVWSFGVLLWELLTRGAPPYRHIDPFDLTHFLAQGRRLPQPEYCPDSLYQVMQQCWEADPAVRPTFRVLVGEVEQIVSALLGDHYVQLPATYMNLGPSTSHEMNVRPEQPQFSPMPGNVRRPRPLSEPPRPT

[7] = molecular target: T2, CDK9/cyclin K (Homo sapiens, UniProt P50750); experiment: 375-member kinase panel; type: biochemical; settings: Run 1, Run 2; for % enzyme activity: 1 μM; for remaining activity at 1 µM: read-out: % enzyme activity, 1 μM
T2 construct: purchased Reaction Biology Corporation
T2 sequence (P50750 whole entry): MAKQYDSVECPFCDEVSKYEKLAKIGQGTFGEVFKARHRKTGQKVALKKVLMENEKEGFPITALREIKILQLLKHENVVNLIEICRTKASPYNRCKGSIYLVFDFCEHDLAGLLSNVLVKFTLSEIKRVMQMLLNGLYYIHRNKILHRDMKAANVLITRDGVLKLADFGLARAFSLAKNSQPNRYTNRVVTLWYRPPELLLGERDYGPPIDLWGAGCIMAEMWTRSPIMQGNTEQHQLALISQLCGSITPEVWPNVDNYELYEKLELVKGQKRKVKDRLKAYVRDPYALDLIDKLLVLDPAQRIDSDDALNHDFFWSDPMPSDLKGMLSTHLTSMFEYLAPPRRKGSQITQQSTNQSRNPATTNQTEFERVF
T2 sequence (O75909 whole entry partner): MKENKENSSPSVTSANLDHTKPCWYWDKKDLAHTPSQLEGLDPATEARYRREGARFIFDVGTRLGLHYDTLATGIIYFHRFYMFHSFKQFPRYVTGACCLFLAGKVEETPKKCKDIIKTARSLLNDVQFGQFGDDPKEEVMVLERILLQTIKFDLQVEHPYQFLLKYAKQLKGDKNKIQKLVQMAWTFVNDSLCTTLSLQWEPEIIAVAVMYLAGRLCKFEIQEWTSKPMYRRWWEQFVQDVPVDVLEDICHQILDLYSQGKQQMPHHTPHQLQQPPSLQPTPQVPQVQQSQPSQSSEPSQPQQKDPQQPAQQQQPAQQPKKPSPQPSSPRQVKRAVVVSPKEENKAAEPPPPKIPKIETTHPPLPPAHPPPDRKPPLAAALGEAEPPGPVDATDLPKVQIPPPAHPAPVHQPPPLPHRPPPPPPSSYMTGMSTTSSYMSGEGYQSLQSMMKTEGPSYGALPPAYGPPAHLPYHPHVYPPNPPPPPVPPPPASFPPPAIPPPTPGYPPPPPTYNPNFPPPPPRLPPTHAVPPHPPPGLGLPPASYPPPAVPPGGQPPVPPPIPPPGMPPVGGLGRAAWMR

[8] = molecular target: CDK2/cyclin E2 (Homo sapiens, UniProt P24941); settings: 1 μM; Run 1, Run 2
[9] = molecular target: RET (Homo sapiens, UniProt P07949); experiment: biochemical; settings: read-out: % enzyme activity, 1 μM; Run 1, Run 2
[10] = molecular target: T3, NEK5 (Homo sapiens, UniProt Q6P3R8); experiment: biochemical; settings: read-out: % enzyme activity, 1 μM; Run 1, Run 2
T3 sequence (Q6P3R8 1-708): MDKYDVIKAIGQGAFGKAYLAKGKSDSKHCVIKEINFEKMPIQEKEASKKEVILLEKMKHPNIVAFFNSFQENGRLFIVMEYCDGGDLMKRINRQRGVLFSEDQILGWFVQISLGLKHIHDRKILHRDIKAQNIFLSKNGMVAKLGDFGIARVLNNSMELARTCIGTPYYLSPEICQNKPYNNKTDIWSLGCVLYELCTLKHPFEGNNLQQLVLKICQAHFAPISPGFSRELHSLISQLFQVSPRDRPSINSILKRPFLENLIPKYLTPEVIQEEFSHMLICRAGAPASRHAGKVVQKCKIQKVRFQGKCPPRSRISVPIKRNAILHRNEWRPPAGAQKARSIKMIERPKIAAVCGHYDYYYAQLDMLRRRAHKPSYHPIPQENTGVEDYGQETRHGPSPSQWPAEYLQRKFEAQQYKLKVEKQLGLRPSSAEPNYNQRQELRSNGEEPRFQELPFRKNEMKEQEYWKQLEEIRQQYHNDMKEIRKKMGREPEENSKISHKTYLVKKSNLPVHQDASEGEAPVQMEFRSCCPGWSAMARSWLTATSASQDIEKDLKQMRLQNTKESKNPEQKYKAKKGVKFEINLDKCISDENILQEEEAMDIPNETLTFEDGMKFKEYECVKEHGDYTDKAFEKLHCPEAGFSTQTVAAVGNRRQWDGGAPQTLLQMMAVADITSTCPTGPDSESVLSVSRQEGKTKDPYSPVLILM

[11] = molecular target: GRK6 (Homo sapiens, UniProt P43250); settings: 1 μM; Run 1, Run 2
[12] = molecular target: PAK1 (Homo sapiens, UniProt Q13153); experiment: biochemical; settings: read-out: % enzyme activity, 1 μM; Run 1, Run 2
Chain of PAK1 (Q13153 whole entry): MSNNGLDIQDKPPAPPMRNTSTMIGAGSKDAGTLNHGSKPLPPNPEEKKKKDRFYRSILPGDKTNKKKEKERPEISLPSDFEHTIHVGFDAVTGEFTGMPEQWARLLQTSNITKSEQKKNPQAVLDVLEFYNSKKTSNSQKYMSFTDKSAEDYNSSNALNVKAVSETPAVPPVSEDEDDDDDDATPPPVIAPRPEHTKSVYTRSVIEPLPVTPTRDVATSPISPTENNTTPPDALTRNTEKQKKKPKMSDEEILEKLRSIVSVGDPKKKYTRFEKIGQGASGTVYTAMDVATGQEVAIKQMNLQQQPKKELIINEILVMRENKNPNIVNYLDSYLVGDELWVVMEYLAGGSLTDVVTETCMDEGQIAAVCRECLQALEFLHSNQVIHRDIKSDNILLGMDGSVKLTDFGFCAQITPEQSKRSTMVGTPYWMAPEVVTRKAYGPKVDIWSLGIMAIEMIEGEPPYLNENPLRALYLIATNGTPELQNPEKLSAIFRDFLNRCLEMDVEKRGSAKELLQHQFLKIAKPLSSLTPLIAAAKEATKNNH

[13] = molecular target: HCK (Homo sapiens, UniProt P08631); settings: 1 μM; Run 1, Run 2
Chain of HCK (P08631 whole entry): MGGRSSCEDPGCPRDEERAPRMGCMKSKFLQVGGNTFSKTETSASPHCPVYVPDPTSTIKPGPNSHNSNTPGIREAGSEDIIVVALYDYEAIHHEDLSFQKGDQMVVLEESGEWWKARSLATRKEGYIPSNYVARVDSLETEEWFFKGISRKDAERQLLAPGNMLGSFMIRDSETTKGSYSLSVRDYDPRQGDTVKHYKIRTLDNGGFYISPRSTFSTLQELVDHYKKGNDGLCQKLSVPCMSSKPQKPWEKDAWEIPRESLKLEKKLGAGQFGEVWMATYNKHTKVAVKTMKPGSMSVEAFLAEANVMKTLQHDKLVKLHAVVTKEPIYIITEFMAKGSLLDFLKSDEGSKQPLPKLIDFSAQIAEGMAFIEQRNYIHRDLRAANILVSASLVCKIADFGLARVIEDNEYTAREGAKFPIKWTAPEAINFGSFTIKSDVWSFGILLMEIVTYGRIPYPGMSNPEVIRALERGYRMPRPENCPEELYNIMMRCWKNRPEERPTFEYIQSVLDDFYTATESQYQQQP

[14] = molecular target: LCK (Homo sapiens, UniProt P06239); settings: 1 μM; Run 1, Run 2
[15] = molecular target: MLK4 (Homo sapiens, UniProt Q5TCX8); experiment: biochemical; settings: read-out: % enzyme activity, 1 μM; Run 1, Run 2
[16] = system: ALK3/BMPR1A
[17] = molecular target: CYP2C9
[18] = molecular target: TIE2/TEK (Homo sapiens, UniProt Q02763); settings: 1 μM; Run 1, Run 2
[19] = molecular target: FES/FPS (Homo sapiens, UniProt P07332); experiment: biochemical; settings: read-out: % enzyme activity, 1 μM; Run 1, Run 2

Structure (SMILES)	IC50 [1]	% enzyme activity [2]	remaining activity at 1 µM [3]	% enzyme activity [4]	% enzyme activity [5]	% enzyme activity [6]	% enzyme activity [7]	remaining activity at 1 µM [7]	% enzyme activity [8]	remaining activity at 1 µM [9]	remaining activity at 1 µM [10]	% enzyme activity [11]	remaining activity at 1 µM [12]	% enzyme activity [13]	% enzyme activity [14]	remaining activity at 1 µM [15]	% enzyme activity at 1 μM [16]	CYP inhibition [17]	% enzyme activity [18]	remaining activity at 1 µM [19]
COc1cc(-c2cncc(-c3ccc(N4C[C@@H](C)N(C)[C@@H](C)C4)cc3)c2C)cc(F)c1C(N)=O [Compound 26c, 2-Fluoro-6-methoxy-4-(4-methyl-5-(4-((3R,5S)-3,4,5-trimethylpiperazin-1-yl)phenyl)pyridin-3-yl)benzamide]	> 50 µM	100.29%	103%	95.54%	97.56%	104.29%	102.30%	106%	93.14%	96%	93.2%	94.12%	103%	88.06%	98.93%	96.2%	50.5% and 50%	> 50 µM	92.15%	98.7%
COc1cc(-c2cncc(-c3ccc(N4CCN(C)CC4)cc3)c2C)cc(F)c1C(N)=O [Compound 26a, 2-Fluoro-6-methoxy-4-(4-methyl-5-(4-(4-methylpiperazin-1-yl)phenyl)pyridin-3-yl)benzamide]	> 50 µM	98.46%	101%	86.47%	106.51%	97.00%	96.95%	97.5%	104.96%	94.4%	98.7%	107.43%	105%	91.96%	92.53%	95.3%	40.2% and 38.4%	> 50 µM	92.85%	99.9%
